Earlier results as cited in US20240122858A1, “MODIFIED-RELEASE DOSAGE FORMS OF RUXOLITINIB” (SLAYBACK PHARMA LLC, priority 2021, published 2024).

Row | Compound | permeability | aqueous solubility (over a pH range of 1-8) | solubility in aqueous buffers (free base)
1 | N#CC[C@H](C1CCCC1)n1cc(-c2ncnc3[nH]ccc23)cn1 [Ruxolitinib phosphate, (3R)-3-cyclopentyl-3-[4-(7H-pyrrolo[2,3-d]-pyrimidin-4-yl)-pyrazol-1-yl]-propanenitrile phosphate] | high permeability | high aqueous solubility | –
2 | N#CC[C@H](C1CCCC1)n1cc(-c2ncnc3[nH]ccc23)cn1 [Ruxolitinib] | – | – | sparingly soluble
